This assay concerns the target NEK7 (Homo sapiens, UniProt Q8TDX7). In words: biochemical in vitro kinase assay (Reaction Biology), 10-dose IC50, […] ATP.

As a reminder, the IC50 is the concentration that inhibits the measured activity by half.

Sequence of NEK7 (Q8TDX7 whole entry): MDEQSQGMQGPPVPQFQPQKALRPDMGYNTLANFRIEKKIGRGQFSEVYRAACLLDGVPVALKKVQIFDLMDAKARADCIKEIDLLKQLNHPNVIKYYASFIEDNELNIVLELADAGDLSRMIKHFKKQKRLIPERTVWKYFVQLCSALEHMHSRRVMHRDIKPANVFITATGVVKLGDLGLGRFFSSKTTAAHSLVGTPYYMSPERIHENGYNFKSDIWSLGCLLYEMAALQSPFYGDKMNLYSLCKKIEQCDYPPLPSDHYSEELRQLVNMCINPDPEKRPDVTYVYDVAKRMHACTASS

`CCN1CCN(c2ccc(Nc3ncc4scc(-c5cccc(C(=O)NCCN(C)C)c5)c4n3)cc2)CC1` [SLC3037, N-(2-(Dimethylamino)ethyl)-3-(2-((4-(4-ethylpiperazin-1-yl)phenyl)amino)thieno[3,2-d]pyrimidin-7-yl)benzamide] returned an IC50 of 2850 nM.
